Experimental data reported in patent publication US11534114B2, “18F labeled amino acids, derivatives thereof and method of making same” (SIMON FRASER UNIVERSITY, priority 2016, dated 2022).

Tested on: U-87 tumor
Test: Dynamic PET/CT time-activity curves of accumulation in selected organs
Format: in vivo, mice
Conditions: time-activity curves (FIG. 41)

- course of activity in U-87 tumor and pancreas after the peak (after peak accumulation): slow progressive efflux
- time of peak accumulation in the U-87 tumor and pancreas (intravenous injection, mice bearing U-87 xenograft, 60 min dynamic scan): < 10 min
Compound: CC(C)([18F])CC[C@H](N)C(=O)O [5-[^18F]FHL, 5-[^18F]fluorohomoleucine]
